Series [1] deals with T1, 5-lipoxygenase (Homo sapiens, UniProt P09917).
T1 construct: endogenous in cells; host or cells: human peripheral blood mononuclear leukocytes (PBMLs)
T1 sequence (P09917 1-674): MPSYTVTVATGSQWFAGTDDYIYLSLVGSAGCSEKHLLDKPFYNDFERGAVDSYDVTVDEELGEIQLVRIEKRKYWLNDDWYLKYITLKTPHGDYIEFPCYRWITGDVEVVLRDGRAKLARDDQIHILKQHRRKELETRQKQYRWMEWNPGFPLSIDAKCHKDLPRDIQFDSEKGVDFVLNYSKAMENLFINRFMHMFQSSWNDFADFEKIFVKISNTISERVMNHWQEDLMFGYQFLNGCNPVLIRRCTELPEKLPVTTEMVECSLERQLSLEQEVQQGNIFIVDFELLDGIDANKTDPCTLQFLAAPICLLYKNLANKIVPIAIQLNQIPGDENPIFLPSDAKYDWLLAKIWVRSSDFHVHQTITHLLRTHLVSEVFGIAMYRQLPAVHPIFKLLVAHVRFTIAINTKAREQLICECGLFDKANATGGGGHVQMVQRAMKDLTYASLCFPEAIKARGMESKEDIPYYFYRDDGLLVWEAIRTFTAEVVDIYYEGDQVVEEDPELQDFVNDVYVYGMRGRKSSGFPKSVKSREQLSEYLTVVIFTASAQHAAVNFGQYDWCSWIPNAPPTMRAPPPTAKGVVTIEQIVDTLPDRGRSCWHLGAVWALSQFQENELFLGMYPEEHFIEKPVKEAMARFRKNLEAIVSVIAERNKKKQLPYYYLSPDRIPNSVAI
The series is described as follows: 5-lipoxygenase activity (LTB4) in human peripheral blood mononuclear leukocytes (Assay 6). It counts as cell-based. As to conditions: human PBMLs, A23187 30 μM, read-out: Inhibition of 5-LO (%). Here is the method: Human peripheral blood mononuclear leukocytes (PBMLs) were isolated using a Ficoll-Paque density gradient. Human peripheral blood mononuclear leukocytes (5×10^6 cells) were incubated with A23187 (30 μM), a divalent cation ionophore used to initiate the biosynthesis of […], and with vehicle (0.1% DMSO) or test compound (3 and 30 μM) in Hank's balanced salt solution (HBBS) buffer, pH 7.4 at 37° C. for 15 min. The PBML solution was neutralized with NaOH (1 N) and centrifuged at 1000 g for 10 min and the supernatant collected. The concentration of leukotriene B4 (LTB4) in the supernatant was measured using an enzyme immunoassay kit (Assay Design Inc.). A reduction in the concentration of LTB4 indicated an inhibition of the enzyme 5-lipoxygenase (Table 11).

Series [2] concerns histamine-induced contractions in guinea pig ileum. The series is described as follows: Inhibition of histamine-induced contractions in guinea pig ileum (Assay 3). As to conditions: Cavia porcellus, histamine 1.7 μM, read-out: Inhibition of histamine-induced contraction (%). As to the method:
(§1) Duncan Hartley derived male guinea pigs (325±25 g) were suppressed by CO2 overexposure, the abdominal cavity was exposed and ileal segments were removed. Small strips of ileum were suspended in organ baths containing Krebs solution (composition in g/l: NaCl 6.89, KCl 0.35, CaCl2 0.277, KH2PO4 0.163, MgSO4.7H2O 0.296, NaHCO3 2.1 glucose 1.8). The solution was kept at 32° C. and gassed with O2 (95%)-CO2 (5%) to maintain pH at 7.4. Mechanical activity was recorded by means of isotonic transducers. A resting tension of 1 g was applied to muscle strips before being equilibrated for 1 h, prior to test compound addition. Each preparation was washed twice at 15 min intervals during the equilibration.
(§2) Histamine (1.7 μM; approximately EC60-70) or 5-hydroxytryptamine (5-HT, 2.6 μM; approximately EC60-70) was applied for 5 min and the amplitude of the contraction recorded. The histamine or 5-HT was then washed out until the ileal tissue returned to baseline. Five min after returning to baseline test compound (3 and 30 μM) was applied and the amplitude of the contraction (if any) was recorded. In the continuous presence of test compound, histamine or 5-HT was re-applied and the inhibition of the response was recorded.

Series [3] concerns IL-1α-induced PGE2 release. The series is described as follows: IL-1α-induced PGE2 release in human diploid lung fibroblasts (WI-38) (Assay 5). As to conditions: Homo sapiens, WI-38 cells, IL-1α 1 nM, overnight. In kind it is cell-based. As to the method:
(§3) Human diploid lung fibroblasts (WI-38 cells) were incubated overnight in the presence of IL-1α (1 nM) and test compound (3 and 30 μM) in modified Eagle medium at pH 7.3 containing foetal bovine serum (10%) at 37° C. The supernatant was assayed by radioimmunoassay for released PGE2 and the inhibition of PGE2 by test compound calculated (Table 10). The viability of the cells was then assessed by washing with Roswell Park Memorial Institute medium and adding Alamar Blue reagent before being incubated at 37° C. for 4 h. Living cells take up Alamar Blue and emit fluorescence when excited. Fluorescence intensity was measured using a SpectroFluor Plus plate reader with excitation at 530 nm and emission at 590 nm (Table 10).

In series [4] the test system is WI-38 cells. The series is described as follows: Viability of WI-38 cells, Alamar Blue (Assay 5). In kind it is cell-based, human. Here is the method: as §3
Background: The colour change of resazurin is a common sign of viable cells or microbes.

Series [5] relates to 5-HT-induced contractions in guinea pig ileum. Put plainly: Inhibition of 5-HT-induced contractions in guinea pig ileum (Assay 3). As to conditions: Cavia porcellus, 5-HT 2.6 μM, read-out: Inhibition of 5-HT-induced contraction (%). As to the method: as §1, §2
Series [6] relates to α-smooth muscle actin (α-SMA) mRNA. The series is described as follows: Anti-remodelling activity in human lung fibroblasts (HFL1): TGFβ-induced α-SMA mRNA (Assay 4). It counts as cell-based. As to conditions: Homo sapiens, HFL1 cells, TGFβ 10 ng/ml, 24 h, read-out: Inhibition of α-SMA mRNA synthesis (%). As to the method:
A human foetal lung fibroblast cell line (HFL1 cells; ATCC accession number CCl-153) was used in this assay. The cells were cultured in medium containing a low level of foetal bovine serum (FBS; 0.1%) for 24 h. After 24 h of culturing the medium was changed to: (a) Control medium (medium containing 10% FBS, 1% phosphate saline and 0.5 mM L-glutamine), (b) Control medium and transforming growth factor beta (TGFβ; 10 ng/ml), (c) Control medium and TGFβ and test compounds (3 and 30 μM). The medium was collected after 24 h and the total mRNA extracted in Tri-reagent. The level of mRNA coding for α-smooth muscle actin (α-SMA) was assessed by real-time reverse transcription-polymerase chain reaction (rtRT-PCR) using primer couples that allow the amplification of α-SMA mRNA. Liver glyceraldehydes 3-phosphate dehydrogenase (GADPH) was used as a reference marker in this experiment. The inhibition of the TGTβ-induced overexpression of α-SMA mRNA by the test compounds was quantified.

Series [7] addresses TRPV1 receptor (Rattus norvegicus, UniProt O35433). The series is described as follows: TRPV1 modulation in DRG neurones: CGRP release in absence and presence of capsaicin (Assay 2). In kind it is cell-based. Details: The culture used for this experiment contained sensory neurones, Schwann cells and fibroblasts; endogenous in cells; host or cells: primary rat DRG sensory neurone culture (with Schwann cells and fibroblasts). As to conditions: 20 min; for inhibition at 3 µM: 3 μM with capsaicin 1 μM; for inhibition at 3 µM / inhibition at 30 µM: −ve: inhibition, +ve: potentiation of capsaicin response, read-out: Effect of test compounds on capsaicin (1 μM)-induced CGRP release (%); for inhibition at 30 µM: 30 μM with capsaicin 1 μM; for Emax at 3 µM: test compound alone 3 μM; for Emax at 3 µM / Emax at 30 µM: rat DRG sensory neurones, read-out: CGRP release (% of capsaicin (1 μM) response); for Emax at 30 µM: test compound alone 30 μM.

Molecules are shown by their SMILES. Structures can show the parent of a compound that is named as a salt.

The values that follow come from US7589123B2, “Chemical compounds” (Phytopharm PLC, priority 2006, dated 2009).

Chain of TRPV1 receptor (O35433 whole entry): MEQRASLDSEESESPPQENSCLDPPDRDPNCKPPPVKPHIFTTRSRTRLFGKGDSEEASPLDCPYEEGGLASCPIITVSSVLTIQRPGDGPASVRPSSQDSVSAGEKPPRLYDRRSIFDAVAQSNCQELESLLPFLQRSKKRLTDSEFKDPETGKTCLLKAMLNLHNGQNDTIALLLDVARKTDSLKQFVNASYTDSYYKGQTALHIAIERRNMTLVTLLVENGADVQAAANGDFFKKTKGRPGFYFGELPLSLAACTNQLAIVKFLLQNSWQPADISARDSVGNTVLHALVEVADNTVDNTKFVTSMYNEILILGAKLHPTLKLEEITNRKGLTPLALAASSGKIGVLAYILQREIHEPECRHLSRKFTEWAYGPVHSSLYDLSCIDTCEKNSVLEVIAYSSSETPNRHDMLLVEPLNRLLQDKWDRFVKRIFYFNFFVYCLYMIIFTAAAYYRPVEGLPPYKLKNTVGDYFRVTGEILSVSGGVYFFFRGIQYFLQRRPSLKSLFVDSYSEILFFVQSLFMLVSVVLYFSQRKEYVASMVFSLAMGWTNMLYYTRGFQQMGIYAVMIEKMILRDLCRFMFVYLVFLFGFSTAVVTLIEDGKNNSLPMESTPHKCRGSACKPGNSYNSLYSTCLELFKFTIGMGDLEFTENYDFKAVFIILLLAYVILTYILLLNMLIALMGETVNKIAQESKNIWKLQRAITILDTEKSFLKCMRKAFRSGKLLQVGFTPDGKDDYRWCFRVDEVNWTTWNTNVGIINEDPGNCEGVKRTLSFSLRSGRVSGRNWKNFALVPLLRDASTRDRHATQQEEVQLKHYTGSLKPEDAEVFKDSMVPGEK

Regarding `COc1cc(CCC(=O)C(C)C(=O)C(C)(C)C)ccc1O` (stereo not shown) [Compound 4, 1-(4-Hydroxy-3-methoxyphenyl)-4,6,6-trimethyl-heptane-3,5-dione], the inhibition at 3 µM in series [1] was 15%; in series [2], 7%; in series [3], 49%; in series [5] it was 0%; in series [6] it was -3%; in series [7], -58%. The inhibition at 30 µM was 73% in series [1]; 14% in series [2]; 96% in series [3]; 10% in series [5]; 17% in series [6]; -24% in series [7]. In addition, the “Decrease in cell viability (%)” value was −3% in series [4] (3 μM) and 10% in series [4] (30 μM). The Emax at 3 µM in series [7] turned out to be 36%. In addition, the Emax at 30 µM in series [7] amounted to 63%.
On to `COc1cc(CCC(=O)C(C)C(=O)C2(C)CC2)ccc1O` (stereo not shown) [Compound 7, 5-(4-Hydroxy-3-methoxylphenyl)-2-methyl-1-(1-methylcyclopropyl)-pentane-1,3-dione], for which the inhibition at 3 µM was 24% in series [1]; 4% in series [2]; 47% in series [3]; 0% in series [5]; -8% in series [6]; 19% in series [7]. Besides, the inhibition at 30 µM in series [1] turned out to be 63%; in series [2], 12%; in series [3], 94%; in series [5] it was 26%; in series [6], 9%; in series [7], 41%. For the same molecule, the “Decrease in cell viability (%)” value in series [4] (3 μM) was −4%; in series [4] (30 μM), 4%. Besides, the Emax at 3 µM in series [7] was determined as 35%. Moreover, in series [7], the Emax at 30 µM turned out to be 76%.
For `CCC(C(=O)CCc1ccc(O)c(OC)c1)C(=O)c1ccccc1` (stereo not shown) [Compound 12, 2-Ethyl-5-(4-hydroxy-3-methoxyphenyl)-1-phenyl-pentane-1,3-dione], the inhibition at 3 µM was 41% in series [1]; 3% in series [2]; 69% in series [3]; 3% in series [5]; 9% in series [6]; 13% in series [7]. Besides, the inhibition at 30 µM was found to be 94% in series [1]; 41% in series [2]; 101% in series [3]; 47% in series [5]; 34% in series [6]; 14% in series [7]. The “Decrease in cell viability (%)” value in series [4] (3 μM) is 6%; in series [4] (30 μM), −5%. In series [7], the Emax at 3 µM is 19%. Besides, in series [7], the Emax at 30 µM was found to be 73%.
For the molecule `COc1cc(CCC(=O)C(C)(C)C(=O)C2(C)CC2)ccc1O` [Compound 70, 5-(4-Hydroxy-3-methoxyphenyl)-2,2-dimethyl-1-(1-methylcyclopropyl)pentane-1,3-dione], the inhibition at 3 µM in series [1] is -1%; in series [2] it was 4%; in series [3], 42%; in series [5], 2%. Further, the inhibition at 30 µM in series [1] was 63%; in series [2] it was 29%; in series [3], 86%; in series [5], 46%. For the same molecule, the “Decrease in cell viability (%)” value worked out at 0% in series [4] (3 μM) and 5% in series [4] (30 μM).
Regarding `COc1cc(CCC(=O)CC(=O)c2ccc3ccccc3c2)c(Cl)cc1O` [Compound 86, 5-(2-Chloro-4-hydroxy-5-methoxyphenyl)-1-(naphthalene-3-yl)pentane-1,3-dione], the inhibition at 3 µM in series [1] was determined as 52%; in series [2] it was 0%; in series [3], 42%; in series [5], 4%. Further, the inhibition at 30 µM in series [1] came to 98%; in series [2], 9%; in series [3], 100%; in series [5], 19%. The “Decrease in cell viability (%)” value in series [4] (3 μM) is 7%; in series [4] (30 μM), 37%.
Turning to `COc1cc(CCC(=O)CC(=O)c2ccccc2)ccc1OCCN` [Compound 87, 5-(4-(2-aminoethoxy)-3-methoxyphenyl)-1-phenylpentane-1,3-dione hydrochloride], the inhibition at 3 µM is -6% in series [1], 0% in series [2], -28% in series [3] and 15% in series [5]. For the same molecule, the inhibition at 30 µM in series [1] was 19%; in series [2] it was 58%; in series [3] it was -62%; in series [5] it was 93%.
